Test results reported in ChEMBL document CHEMBL3507680, “University of Dundee, Gates Library screen for HepG2 cell viability”.

Test: Human HepG2 cell viability assay in 384 well format
Format: toxicity, cell-based
Parameters: dose 125 nL, time 70.5 hour; cytotoxicity at 70.5 h: concentration not given beside the values
Conditions: HepG2 cells, read-out: Inhibition

CCC(=O)N1CCCC(c2ncc3c(n2)CCN(C)C3)C1 (configuration not stated)
cytotoxicity at 70.5 h: -8.89%

CNc1cc(CNC(=O)c2ccncc2)nc(-c2ccncc2)n1
cytotoxicity at 70.5 h: -2.12%

CNc1cc(CNC(=O)c2ccnc(OC)c2)nc(-c2ccncc2)n1
cytotoxicity at 70.5 h: 11.8%

Cc1cc(C)nc(N2CCCC(c3cccc(-n4ccnc4)n3)C2)n1 (configuration not stated)
cytotoxicity at 70.5 h: -5.86%

NC[C@H]1CC[C@H](C(NC(=O)CC2CCCCC2)c2ccccn2)CC1 (some centres not stated)
cytotoxicity at 70.5 h: -6.94%

Cc1cc(C)nc(N2CCC(c3cncc(-n4ccnc4)n3)CC2)n1
cytotoxicity at 70.5 h: -6.63%

CC(=O)N1CCC(c2cc(C(F)(F)F)nc3nccn23)CC1
cytotoxicity at 70.5 h: -8.29%

COCCN1CCCC1c1nccnc1Nc1nccs1 (configuration not stated)
cytotoxicity at 70.5 h: -4.09%

COCCN1CCCC1c1nccnc1Nc1ncc(C)s1 (configuration not stated)
cytotoxicity at 70.5 h: -1.57%

Cc1ncncc1C(=O)N1CCCC(c2[nH]ncc2S(C)(=O)=O)C1 (configuration not stated)
cytotoxicity at 70.5 h: -6.13%

CO[C@H]1CN(Cc2ccc(F)c(F)c2)C[C@@]12CCCO2
cytotoxicity at 70.5 h: -2.35%

C[C@]1(O)CCN(Cc2cccnc2)C[C@@H]1Oc1cccc(F)c1
cytotoxicity at 70.5 h: -2.19%

Cn1cccc1C(=O)N1CCC(O)(CN2CCc3ccccc3C2)C1 (configuration not stated)
cytotoxicity at 70.5 h: -4.98%

Cc1cc2cc(C(=O)N[C@@H]3CC[C@@H](N4CCNC(=O)C4)[C@@H]3O)ccc2o1
cytotoxicity at 70.5 h: -7.85%

CCN(CC)S(=O)(=O)NCC1Cc2ccccc2O1 (configuration not stated)
cytotoxicity at 70.5 h: -3.76%

O=C(COCC1CCCO1)N(Cc1cccnc1)c1ccc(F)cc1 (configuration not stated)
cytotoxicity at 70.5 h: 2.18%

CCN(C)Cc1cccc(CNC(=O)CSCc2ccncc2)c1
cytotoxicity at 70.5 h: -6.72%

CC(C(=O)NCC(C)(C)c1ccc(Br)cc1)n1cncn1 (configuration not stated)
cytotoxicity at 70.5 h: -12.2%

Cc1nn(C)c(C)c1CCC(=O)NCC1(C(N)=O)CCOCC1
cytotoxicity at 70.5 h: -17.6%

Cc1nc(C)n(CC2CCCN2c2ncnc3sc(C)c(C)c23)n1 (configuration not stated)
cytotoxicity at 70.5 h: -3.31%

Cc1ncc2c(n1)CN(Cc1nc(-c3ccco3)oc1C)CC2
cytotoxicity at 70.5 h: -10.5%

Cc1nc(NCc2nnc(C)n2C)c2c(CC(C)C)csc2n1
cytotoxicity at 70.5 h: 0.805%

CCC(C#N)NC(=O)c1sccc1OC (configuration not stated)
cytotoxicity at 70.5 h: -10.7%

COC(=O)CCN(C)C(=O)c1csc(Cc2ccccc2F)n1
cytotoxicity at 70.5 h: 0.501%

CC1(C)CN(Cc2ccncc2)CCS1(=O)=O
cytotoxicity at 70.5 h: 24.1%

CN(C)CC(O)Cn1cc(NCc2ccc(Br)cc2)cn1 (configuration not stated)
cytotoxicity at 70.5 h: -2.01%

N#Cc1ccc(Cl)cc1NCC1CCOC1 (configuration not stated)
cytotoxicity at 70.5 h: -1.84%

CS(=O)(=O)CCCNc1cccc(COC2CCCCC2)c1
cytotoxicity at 70.5 h: -12.7%

Cc1ccc(CN2CCS(=O)(=O)C(C)(C)C2)cc1C
cytotoxicity at 70.5 h: 20.3%

CCCSCC(=O)NCc1cccc(CN(C)CC)c1
cytotoxicity at 70.5 h: -9.96%

COc1ccc(CNC(C)c2cnn(C)c2)cc1OC1CCCC1 (configuration not stated)
cytotoxicity at 70.5 h: -3.45%

Cc1ccc(=O)n(Cc2csc(N(C)C3CC3)n2)n1
cytotoxicity at 70.5 h: -10.2%

COc1ccc(Cl)cc1CS(=O)(=O)Cc1nc(C2CC2)no1
cytotoxicity at 70.5 h: -5.91%

N#Cc1ccc(F)c(CN2CCc3sccc3C2)c1
cytotoxicity at 70.5 h: -5.04%

Cc1ccc(C(=O)NC(C)Cn2cccn2)c(=O)[nH]1 (configuration not stated)
cytotoxicity at 70.5 h: 8.15%

Cc1ccc(C(=O)NCC(C)Cn2cccn2)c(=O)[nH]1 (configuration not stated)
cytotoxicity at 70.5 h: -3.38%

CC1CN(C(=O)c2cnn(-c3ccccn3)c2C(C)C)CC(C)(C)O1 (configuration not stated)
cytotoxicity at 70.5 h: -4.17%

COc1c(Cl)cc(C(=O)NCc2n[nH]c(C)n2)cc1Cl
cytotoxicity at 70.5 h: 2.06%

CCc1c(C(=O)N2CC(C)OC(C)(C)C2)cnn1-c1ccccn1 (configuration not stated)
cytotoxicity at 70.5 h: -4.53%

Cc1[nH]nc2ncc(C(=O)N3CCN(C(C)(C)C)CC3)cc12
cytotoxicity at 70.5 h: -0.02%

Cc1nnc2n1CCN(Cc1nc3ccccc3o1)C2
cytotoxicity at 70.5 h: -3.32%

COc1ccc(Cl)cc1CS(=O)(=O)Cc1noc(C)n1
cytotoxicity at 70.5 h: 12.6%

CCc1nnc2n1CCN(c1nc3ccccc3o1)C2
cytotoxicity at 70.5 h: -7.72%

Cc1nnc2n1CCN(c1nc3ccccc3o1)C2
cytotoxicity at 70.5 h: 1.55%

Cc1noc(C(C)Nc2ccc3oc(=O)[nH]c3c2)n1 (configuration not stated)
cytotoxicity at 70.5 h: -0.467%

Fc1ccc(OCCCNC2=NCCCN2)cc1
cytotoxicity at 70.5 h: -5.27%

c1ccc(OCCNC2=NCCCN2)cc1
cytotoxicity at 70.5 h: 24.2%
